Columns and labels:
HaCaT cells = test: MTT-reduction assay: antiapoptotic effect against UV-induced apoptosis in HaCaT cells; assay type: cell-based, Human; conditions: 60 mJ/cm^2 UVB; for UV-caused apoptotic cell population compared with untreated control cells: 24 hours after UV irradiation
Method: (§1) Human keratinocyte HaCaT cell line was provided by Dr. N. E. Fusenig (Deutsches Krebsforschungszentrum(DKFZ), Heidelberg, Germany) and cultured in DMEM (Dulbecco's modified Eagle's medium, Gibco 1210-0038) supplemented with 10% fetal bovine serum. Cultures were incubated at 37° C., in humidified air with 5% CO2.
Cell lines cultured in Step 1 were treated with trypsin to give a single-cell suspension and seeded into a 6-well microplate at 2×10^5 cells per well, then cultured for 24 hours. Subsequently, the culture medium was refreshed with serum-free DMEM and cells were cultured for another 24 hours. The microplate was then treated with 2 μM ginsenoside F1; 10 μM EGCG; a combination of 2 μM ginsenoside F1 and 10 μM EGCG; 5 μM ginsenoside F1; and 50 μM EGCG in separate wells.
For reference, ginsenoside F1 was dissolved in 100% ethanol at a 1/1000-fold concentration to the medium and EGCG (Sigma) was dissolved in dimethyl sulfoxide (DMSO) at a 1/1000-fold concentration to the medium, and then added at the required amount to the culture mediums.
After 24-hour treatment of each test sample, each microplate was washed with phosphate buffered saline (PBS) and exposed to 60 mJ/cm^2 of UVB in the presence of PBS. PBS was then removed and the culture medium was refreshed with a medium containing each compound at the corresponding concentration. As a control, untreated cells were cultured in the same way.
24 hours after UV irradiation, to the microplates treated with each compound or untreated was added 3-(4,5-dimethyl thiazol-2-yl)-2,5-diphenyltetrazolium bromide (MTT, Sigma) solution, and then the cells were cultured at 37° C. for 4 hours. DMSO was added and dissolved completely. The optical density (OD) of formazan formed at 540 nm was measured using an ELISA reader (Thermo Max, Molecular Devices Co.). Cell viability in each test group was evaluated as a relative value, considering OD of untreated control cells as 100%.

Bcl-2 = test: Western-blot analysis of UV-induced down-regulation of Bcl-2 expression in HaCaT cells; assay type: cell-based, Human; conditions: 60 mJ/cm^2 UVB
Method: as §1
Cell lines cultured in Step 1 were treated with trypsin to give a single-cell suspension and seeded into 6-well microplates at […] per well, then cultured for 24 hours. Subsequently, the culture medium was refreshed with serum-free DMEM and cells were cultured for another 24 hours. The microplates were then treated with 2 μM ginsenoside F1; 10 μM EGCG; a combination of 2 μM ginsenoside F1 and 10 μM EGCG; 5 μM ginsenoside F1; and 50 μM EGCG, respectively. Ginsenoside F1 was dissolved in 100% ethanol at a 1/1000-fold concentration to the medium and EGCG (Sigma) was dissolved in DMSO at a 1/1000-fold concentration to the medium. […]
24 hours after UV irradiation, cells treated with each compound or untreated were washed with PBS and harvested by treating with trypsin. […] Supernatants were collected by centrifugation at 15,000×g for 10 minutes at 4° C. and protein concentrations were determined using BIO-Rad Protein Dye Reagent™. […] The bands on the film were scanned using PowerLook 2100 XL (UMAX) and analyzed with ImageMaster 2D Elite software (Amersham Biosciences).

Compound	UV-caused apoptotic cell population compared with untreated control cells (HaCaT cells; 2 μM ginsenoside F1 alone)	antiapoptotic effect relative to combined treatment (2 μM ginsenoside F1 and 10 μM EGCG) (HaCaT cells; 5 μM ginsenoside F1 alone)	Bcl-2 expression compared with the untreated control group (Bcl-2; 2 μM ginsenoside F1 alone)	UV-caused apoptotic cell population compared with untreated control cells (HaCaT cells; 10 μM EGCG alone)	antiapoptotic effect relative to combined treatment (2 μM ginsenoside F1 and 10 μM EGCG) (HaCaT cells; 50 μM EGCG alone)	Bcl-2 expression compared with the untreated control group (Bcl-2; 10 μM EGCG alone)
CC(C)=CCC[C@](C)(O[C@@H]1O[C@H](CO)[C@@H](O)[C@H](O)[C@H]1O)[C@H]1CC[C@]2(C)[C@@H]1[C@H](O)C[C@@H]1[C@@]3(C)CC[C@H](O)C(C)(C)[C@@H]3[C@@H](O)C[C@]12C [ginsenoside F1, 20-O-β-D-glucopyranosyl-20(S)-protopanaxatriol]	no difference	similar	no difference			
O=C(O[C@@H]1Cc2c(O)cc(O)cc2O[C@@H]1c1cc(O)c(O)c(O)c1)c1cc(O)c(O)c(O)c1 [EGCG, (−)epigallocatechin-3-gallate]				no difference	similar	no difference

— patent US20080280838A1, “Composition Containing Ginsenoside F1 and Egcg for Preventing Skin Damage” (Amorepacific Corporation, priority 2004, published 2008)
